{"source": "patent US20110207759A1", "about": "“METHOD FOR TREATMENT OF ATHEROSCLEROTIC DISEASE” (priority 2010, published 2011);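 for C-reactive protein: plasma drawn after an overnight fast, LDL-C determined by direct assay and C-reactive protein by high-sensitivity immunoturbidimetry with monoclonal anti-CRP antibodies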;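 for HDL-C: plasma drawn after an overnight fast, LDL-C determined by direct assay and C-reactive protein by high-sensitivity immunoturbidimetry with monoclonal anti-CRP antibodies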;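 for LDL-C: plasma drawn after an overnight fast, LDL-C determined by direct assay and C-reactive protein by high-sensitivity immunoturbidimetry with monoclonal anti-CRP antibodies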;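 for Triglycerides: plasma drawn after an overnight fast, LDL-C determined by direct assay and C-reactive protein by high-sensitivity immunoturbidimetry with monoclonal anti-CRP antibodies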", "key": {"[1]": {"test_system": "statin-treated patients with atherosclerotic coronary or vascular disease or coronary risk equivalent", "assay": "Carotid B-mode ultrasound: change in carotid intima-media thickness (CIMT), ARBITER 6-HALTS trial", "assay_type": "in vivo, human", "details": "for Change in CIMT - Mean CIMT / Change in CIMT - Max CIMT / Change in mean CIMT / Change from baseline CIMT, maximal thickness / Change from baseline CIMT, mean thickness: mean ± SE; for Change in mean CIMT: LOCF; for Change from baseline CIMT, maximal thickness / Change from baseline CIMT, mean thickness: last observation carried forward, all subjects (ezetimibe n=161, niacin n=154)", "from_the_text": "(§1) Endpoints: The predefined primary endpoint was the between-group difference in the change in mean CIMT after 14 months. Secondary endpoints included the change in lipid values, a composite endpoint consisting of major adverse cardiovascular events (coronary heart disease death, myocardial infarction, myocardial revascularization, admission to the hospital for an acute coronary syndrome), drug discontinuation due to adverse effects, and health-related quality of life (Schweikert et al., 2008). Clinical cardiovascular endpoints were adjudicated by consensus of two members of the data advisory committee blinded to treatment assignment.\nCarotid B-mode Ultrasound: Carotid ultrasonography was performed using a Sonosite Micromax ultrasound system (Bothell, Wash.) equipped with a broadband linear array probe (13 MHz). Participants underwent 3 ultrasound examinations during the study at baseline, 8 and 14 months. Except for the initial 20 baseline examinations performed at the Washington Adventist site, a single sonographer performed all ultrasound examinations. Images were obtained of the far wall of the distal 1 centimeter of the right and left common carotid arteries in the anterior and lateral views. A total of eight images (2 complete sets of 4 separate images) were obtained with standardized ultrasound settings. Baseline CIMT images were used to localize the site of imaging in serial images. Digitized still images from an electrocardiographically-defined diastolic frame were quantitated off-line. A single observer unaware of treatment assignment and patient identification performed measurements of mean and maximal CIMT. Focal atherosclerotic plaque was excluded from the site of CIMT measurement. All measurements were performed in duplicate using an automated border detection algorithm. […] Reader drift was evaluated using a standard image set (10 CIMT images from different patients) which the sonographer serially quantified every 6 months.\nStatistical analysis: The primary endpoint was the change in mean CIMT from baseline to 14 months between the niacin and ezetimibe treatment groups. […] Clinical and carotid imaging data were held in separate databases for the duration of the trial. Between-group data for continuous variables were assessed with a t-test for independent variables or a Mann-Whitney U test as appropriate. A chi-square test was used for categorical variables. Kaplan-Meier survival analysis was performed using the log rank test. All statistical analyses were performed using SPSS software (version 16, SPSS Inc., Chicago, Ill.). Values are reported as mean±standard deviation or standard error, and median (inter-quartile range) for non-normal distributions. A 2-sided P value of 0.05 was considered statistically significant.\nStudy design: The study design prespecified the performance of a blinded, interim analysis according to the conservative method of O'Brien and Fleming with an alpha spending function (O'Brien et al. 1979). This was conducted after 180 subjects (60% of the planned sample size) completed the study. An independent data advisory committee evaluated the endpoint data without knowledge of treatment assignment. No formal, a priori stopping boundaries were set for the trial."}, "[2]": {"test_system": "statin-treated patients with atherosclerotic coronary or vascular disease or coronary risk equivalent", "assay": "Major adverse cardiovascular events (composite clinical endpoint)", "assay_type": "in vivo, human", "details": "14-month study", "from_the_text": "as §1"}, "[3]": {"test_system": "statin-treated patients with atherosclerotic coronary or vascular disease or coronary risk equivalent", "from_the_text": "as §1"}, "[4]": {"test_system": "statin-treated patients with atherosclerotic coronary or vascular disease or coronary risk equivalent", "assay": "Fasting plasma lipids, glucose and C-reactive protein during treatment", "details": "for C-reactive protein / Triglycerides: median (inter-quartile range)", "experimental": "Study population: This prospective, randomized, parallel group, open-label, blinded endpoint study was conducted at two centers, Walter Reed Army Medical Center, a university-affiliated, suburban, tertiary care military medical center, and the Washington Adventist Hospital, a private tertiary care hospital located in Takoma Park, Md. The institutional review boards of each facility approved the study, and all volunteers provided written, informed consent. Included subjects were men and women ≧30 years old with either known atherosclerotic coronary or vascular disease (N=279) or a coronary risk equivalent diagnosis including diabetes mellitus (N=38), a 10-year coronary heart disease Framingham risk score ≧20% (N=26), or a coronary calcium score above 200 or 400 (N=20) for women and men respectively.\nRandomization: Three hundred sixty-three patients were enrolled in the trial. […] Randomization was performed using a computer-generated sequence of random numbers. There were no protocol-directed changes in statin medications during the study.\nCardiovascular risk variables: Following an overnight fast, laboratory measurements included plasma total cholesterol, LDL-C, HDL-C, triglycerides, C-reactive protein, liver-associated enzymes and glucose at baseline, 2, 8 and 14 months. LDL-C was measured using a direct assay. C-reactive protein was measured with a high-sensitivity, commercially available immunoturbidimetric assay, which uses monoclonal antibodies to CRP (Roche Cobas® Integra, Switzerland)."}, "[5]": {"details": "14 months from baseline, completing subjects (ezetimibe n=111, niacin n=97), added to statin"}, "[6]": {"details": "2 Months, 208 completers, added to statin, mean ± SD"}, "[7]": {"details": "8 Months, 208 completers, added to statin, mean ± SD"}, "[8]": {"details": "14 Months, 208 completers, added to statin, mean ± SD"}, "[9]": {"details": "baseline to 14 months, 208 completers, added to statin"}, "[10]": {"details": "study completion, n=315, mean ± SD"}, "[11]": {"details": "study completion, n=315, median (interquartile range)"}}, "data": [{"compound": "O=C(O)c1cccnc1", "note": "[Niacin, niacin]", "values": [{"measurement": "Change in CIMT", "setting": "[1]; 8 and 14 months, 208 completers, added to statin", "result": "significant reduction in mean and maximal CIMT (regression)"}, {"measurement": "Change in CIMT - Mean CIMT", "setting": "[1]; 8 months from baseline, 208 completers (ezetimibe N=111, niacin N=97), added to statin", "result": "−0.0102 ± 0.0030", "unit": "mm"}, {"measurement": "Change in CIMT - Max CIMT", "setting": "[1]; 8 months from baseline, 208 completers, added to statin", "result": "−0.0128 ± 0.0043", "unit": "mm"}, {"measurement": "Change in CIMT - Max CIMT", "setting": "[1]; [5]", "result": "−0.0181 ± 0.0050", "unit": "mm"}, {"measurement": "Change in CIMT - Mean CIMT", "setting": "[1]; [5]", "result": "−0.0142 ± 0.0041", "unit": "mm"}, {"measurement": "Change in CIMT - Mean CIMT", "setting": "[1]; 14 months from baseline, completing subjects (ezetimibe n=111, niacin n=97), added to statin, listed as ERN", "result": "−0.0142±0.0041", "unit": "mm"}, {"measurement": "Change in mean CIMT", "setting": "[1]; Quartile 1 (lowest) of cumulative drug exposure (adherence × dose × treatment duration)", "result": "−0.0052 ± 0.0041", "unit": "mm"}, {"measurement": "Change in mean CIMT", "setting": "[1]; Quartile 2 of cumulative drug exposure", "result": "−0.0073 ± 0.0027", "unit": "mm"}, {"measurement": "Change in mean CIMT", "setting": "[1]; Quartile 3 of cumulative drug exposure", "result": "−0.0148 ± 0.0060", "unit": "mm"}, {"measurement": "Change in mean CIMT", "setting": "[1]; Quartile 4 (highest) of cumulative drug exposure, 14 months", "result": "−0.0128 ± 0.0078", "unit": "mm"}, {"measurement": "Change in mean CIMT", "setting": "[1]; Quartile 4 (highest) of cumulative drug exposure, 14 months, listed as ERN", "result": "−0.0128±0.0078", "unit": "mm"}, {"measurement": "Effect of increased cumulative drug exposure on CIMT", "setting": "[1]; exploratory analysis, quartiles of adherence × dose × duration", "result": "regression of CIMT"}, {"measurement": "Change from baseline CIMT, maximal thickness", "setting": "[1]", "result": "−0.0124 ± 0.0036", "unit": "mm"}, {"measurement": "Change from baseline CIMT, mean thickness", "setting": "[1]", "result": "−0.0102 ± 0.0026", "unit": "mm"}, {"measurement": "Change from baseline CIMT, maximal thickness", "setting": "[1]; listed as niacin", "result": "−0.0124±0.0036", "unit": "mm"}, {"measurement": "Change from baseline CIMT, mean thickness", "setting": "[1]; listed as niacin", "result": "−0.0102±0.0026", "unit": "mm"}, {"measurement": "Incidence of major adverse cardiovascular events", "setting": "[2]", "result": 1.3, "unit": "%"}, {"measurement": "Cardiovascular death (number of events)", "setting": "[2]; ezetimibe N=165, niacin N=160", "result": 1}, {"measurement": "Coronary revascularization procedure (number of events)", "setting": "[2]; ezetimibe N=165, niacin N=160", "result": 0}, {"measurement": "Myocardial infarction (number of events)", "setting": "[2]; ezetimibe N=165, niacin N=160", "result": 1}, {"measurement": "Subjects experiencing a composite clinical cardiovascular endpoint (major adverse cardiovascular events)", "setting": "[2]; ezetimibe N=165, niacin N=160", "result": 2, "unit": "subjects"}, {"measurement": "Cutaneous flushing reported", "setting": "[3]; both, human, in vivo, 14 months", "result": 36.1, "unit": "%"}, {"measurement": "Subjects who did not complete the study", "setting": "[3]; in vivo", "result": 28}, {"measurement": "Subjects who did not complete the study (percent)", "setting": "[3]; in vivo", "result": 14.9, "unit": "%"}, {"measurement": "Withdrawals", "setting": "[3]; in vivo", "result": 27}, {"measurement": "Withdrawals with adverse drug effects cited as the reason", "setting": "[3]; of 9 ezetimibe / of 27 niacin withdrawals", "result": 17}, {"measurement": "Deaths", "setting": "[3]; of 176 ezetimibe / of 187 niacin enrolled", "result": 1}, {"measurement": "HDL-C", "setting": "[4]; [6]", "result": "48.9 ± 10.6", "unit": "mg/dL"}, {"measurement": "LDL-C", "setting": "[4]; [6]", "result": "66.2 ± 18.1", "unit": "mg/dL"}, {"measurement": "C-reactive protein", "setting": "[4]; 2 Months, 208 completers", "result": "1.1 (0.6-3.1) mg/L"}, {"measurement": "Triglycerides", "setting": "[4]; 2 Months, 208 completers", "result": "88 (69-125) mg/dL"}, {"measurement": "Total Cholesterol", "setting": "[4]; 2 Months, 208 subjects who completed 14 month study, added to statin, mean ± SD", "result": "131.0 ± 22.9", "unit": "mg/dL"}, {"measurement": "HDL-C", "setting": "[4]; [7]", "result": "50.7 ± 11.6", "unit": "mg/dL"}, {"measurement": "LDL-C", "setting": "[4]; [7]", "result": "67.1 ± 19.5", "unit": "mg/dL"}, {"measurement": "Total Cholesterol", "setting": "[4]; [7]", "result": "133.6 ± 25.5", "unit": "mg/dL"}, {"measurement": "C-reactive protein", "setting": "[4]; 8 Months, 208 completers", "result": "1.1 (0.5-2.4) mg/L"}, {"measurement": "Triglycerides", "setting": "[4]; 8 Months, 208 completers", "result": "88 (66-123) mg/dL"}, {"measurement": "HDL-C", "setting": "[4]; [8]", "result": "49.9 ± 12.2", "unit": "mg/dL"}, {"measurement": "LDL-C", "setting": "[4]; [8]", "result": "70.5 ± 23.9", "unit": "mg/dL"}, {"measurement": "Total Cholesterol", "setting": "[4]; [8]", "result": "136.7 ± 29.3", "unit": "mg/dL"}, {"measurement": "C-reactive protein", "setting": "[4]; 14 Months, 208 completers", "result": "1.0 (0.4-2.9) mg/L"}, {"measurement": "Triglycerides", "setting": "[4]; 14 Months, 208 completers", "result": "90 (69-138) mg/dL"}, {"measurement": "Change from baseline in LDL-C and triglycerides", "setting": "[4]; 315 patients, baseline to final", "result": "Significant reductions"}, {"measurement": "Final change in HDL-C", "setting": "[4]; [9]", "result": "+7.5±9.2 mg/dL"}, {"measurement": "Final change in LDL-C", "setting": "[4]; [9]", "result": "-10.0 ± 24.5", "unit": "mg/dL"}, {"measurement": "Total cholesterol, final values", "setting": "[4]; study completion, n=315 (ezetimibe 161, niacin 154), last observation carried forward, mean ± SD", "result": "137.6 ± 30.5", "unit": "mg/dL"}, {"measurement": "HDL-C, final values", "setting": "[4]; [10]", "result": "49.7 ± 11.5", "unit": "mg/dL"}, {"measurement": "LDL-C, final values", "setting": "[4]; [10]", "result": "72.7 ± 25.9", "unit": "mg/dL"}, {"measurement": "Triglycerides, final values", "setting": "[4]; [11]", "result": "91 (69-134) mg/dl"}, {"measurement": "hsCRP, final values", "setting": "[4]; [11]", "result": "1.0 (0.4-2.3) mg/l"}]}]}
